Results reported in patent publication US7109243B2 (IRM LLC, priority 2003, dated 2006).

Legend:
[1] = target: Cathepsin S (Homo sapiens, UniProt P25774); assay: Cathepsin S inhibition assay (fluorogenic peptide substrate); type: biochemical; conditions: Table II, compounds of Formula I; read-out: Ki Cat. S
Protocol: “Inhibition constant”, Ki, is the dissociation constant of the enzyme-inhibitor complex, or the reciprocal of the binding affinity of the inhibitor to the enzyme. […] The inhibited rates are then fit by nonlinear regression to the following equation: […]
The assumption being made for the classical inhibition described above is that the free inhibitor concentration is equal to the total inhibitor concentration.
Kinetic measurements are performed in a total reaction volume of 30 μl in 384-well microtiter plates. […] The reactions are initiated by adding the substrate, acetyl-histidine-proline-valine-lysine-amino carbamoyl coumarin, to a final concentration of 50 μM. The rate of substrate hydrolysis is measured by monitoring the increase in fluorescence at an excitation wavelength of 380 nm and an emission wavelength of 450 nm that results from cleavage of the aniline bond in the substrate by the enzyme.

[2] = target: T1, Cathepsin K (Homo sapiens, UniProt P43235); assay: Cathepsin K inhibition assay (fluorogenic peptide substrate); selectivity ratio vs cathepsin S; type: biochemical; conditions: ratio of cathepsin K inhibition constant to cathepsin S inhibition constant; Table II
T1 sequence (P43235 115-329): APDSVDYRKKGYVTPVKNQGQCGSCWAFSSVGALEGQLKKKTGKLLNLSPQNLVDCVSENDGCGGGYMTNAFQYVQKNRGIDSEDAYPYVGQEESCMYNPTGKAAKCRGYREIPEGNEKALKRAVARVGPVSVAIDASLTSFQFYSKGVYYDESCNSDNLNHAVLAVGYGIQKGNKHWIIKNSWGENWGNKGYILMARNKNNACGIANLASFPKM
Protocol: The optimal substrate for cathepsin K, acetyl-lysine-histidine-proline-lysine-amino carbamoyl coumarin, was identified from screening a combinatorial library of fluorogenic peptide substrates (Harris, J. L., B. J. Backes, et al., Proc Natl Acad Sci USA 2000, 97(14), 7754-9). Kinetic measurements are performed in a total reaction volume of 30 μl in 384-well microtiter plates. […] The reactions are initiated by adding the substrate, acetyl-lysine-histidine-proline-lysine-amino carbamoyl coumarin, to a final concentration of 40 μM. The rate of substrate hydrolysis is measured by monitoring the increase in fluorescence at an excitation wavelength of 380 nm and an emission wavelength of 450 nm that results from cleavage of the aniline bond in the substrate by the enzyme. The apparent inhibition constants for the compounds are determined from the enzyme progress curves ([…]. Elrod, et al., Anal Biochem 2000, 286(1), 45-50) and are then used to calculate the inhibition constants for competitive inhibitors. Selectivity for cathepsin S in the presence of cathepsin isozymes was determined by the ratio of the cathepsin isozyme inhibition constant of a compound of the present invention to the cathepsin S inhibition constant of the same compound.

Cathepsin S, sequence (P25774 115-331, species assumed): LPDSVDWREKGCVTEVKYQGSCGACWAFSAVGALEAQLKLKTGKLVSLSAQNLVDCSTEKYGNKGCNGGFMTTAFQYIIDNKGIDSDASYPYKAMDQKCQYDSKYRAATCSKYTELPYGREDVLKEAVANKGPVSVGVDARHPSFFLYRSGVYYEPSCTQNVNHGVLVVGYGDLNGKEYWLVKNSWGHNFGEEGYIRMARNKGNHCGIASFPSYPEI

Compound | Ki [1] [µM] | Selectivity for Cat. S over Cat. K [2]
C[C@H](C(=O)N[C@@H](CC1CCCCC1)C(=O)NCCNc1ccc(F)cc1)c1ccccc1 [Compound 294, N-(S)-{2-cyclohexyl-1-[2-(4-fluoro-phenylamino)-ethylcarbamoyl]-ethyl}-2-(S)-phenyl-propionamide] | < 0.1 | ++ (++, >100)
COc1ccc(NCCNC(=O)[C@H](CC2CCCCC2)NC(=O)c2sc(-c3ccc(C(F)(F)F)cc3)nc2C)cc1 [Compound 188, (S)-4-Methyl-2-(4-trifluoromethyl-phenyl)-thiazole-5-carboxylic acid {2-cyclohexyl-1-[2-(4-methoxy-phenylamino)-ethylcarbamoyl]-ethyl}-amide] | < 0.1 | +++ (+++, >1000)
COc1ccc(NCCNC(=O)[C@H](Cc2ccccc2C(F)(F)F)NC(=O)c2cccc(C)c2)cc1 [Compound 239, (S)-N-[1-[2-(4-Methoxy-phenylamino)-ethylcarbamoyl]-2-(2-trifluoromethyl-phenyl)-ethyl]-3-methyl-benzamide] | < 0.1 | +++ (+++, >1000)
O=C(Cc1ccc(F)c(F)c1)N[C@@H](CC1CCCCC1)C(=O)NCCNc1ccc(F)cc1 [Compound 99, 3-Cyclohexyl-2-(S)-[2-(3,4-difluoro-phenyl)-acetylamino]-N-[2-(4-fluoro-phenylamino)-ethyl]-propionamide] | < 0.1 | ++ (++, >100)
COc1ccc(NCCNC(=O)[C@H](Cc2ccc(Oc3ccc(Cl)c(Cl)c3)cc2)NC(=O)c2cccc(C)c2)cc1 [Compound 98, (S)-N-{2-[4-(3,4-Dichloro-phenoxy)-phenyl]-1-[2-(4-methoxy-phenylamino)-ethylcarbamoyl]-ethyl}-3-methyl-benzamide] | < 1 | ++ (++, >100)
COc1ccc(NCCNC(=O)[C@H](Cc2ccccc2)NC(=O)c2cc(C)c(OC)c(C)c2)cc1 [Compound 21, (S)-4-Methoxy-N-{1-[2-(4-methoxy-phenylamino)-ethylcarbamoyl]-2-phenyl-ethyl}-3,5-dimethyl-benzamide] | < 0.1 | + (+, >10)
COc1ccc(NCCNC(=O)[C@H](Cc2ccccc2)NC(=O)c2cccc(C#N)c2)cc1 [Compound 55, (S)-3-Cyano-N-{1-[2-(4-methoxy-phenylamino)-ethylcarbamoyl]-2-phenyl-ethyl}-benzamide] | < 1 | ++ (++, >100)
COc1ccc(NCCNC(=O)[C@H](Cc2ccc(-c3ccc(N(C)C)cc3)cc2)NC(=O)c2cccc(C)c2)cc1 [Compound 287, (S)-N-{2-(4′-Dimethylamino-biphenyl-4-yl)-1-[2-(4-methoxy-phenylamino)-ethylcarbamoyl]-ethyl}-3-methyl-benzamide] | < 1 | ++ (++, >100)
O=C(N[C@@H](CC1CCCCC1)C(=O)NCCNc1ccc(F)cc1)C(F)c1ccccc1 (mixture of isomers) [Compound 86, 3-Cyclohexyl-2-(S)-(2-(R,S)-fluoro-2-phenyl-acetylamino)-N-[2-(4-fluoro-phenylamino)-ethyl]-propionamide] | < 0.1 | ++ (++, >100)
COc1ccc(NCCNC(=O)[C@H](CC2CCCCC2)NC(=O)c2ccc(-c3cc(Cl)cc(Cl)c3)cc2)cc1 [Compound 171, (S)-3′, 5′-Dichloro-biphenyl-4-carboxylic acid {2-cyclohexyl-1-[2-(4-methoxy-phenylamino)-ethylcarbamoyl]-ethyl}-amide] | < 0.1 | +++ (+++, >1000)
Cc1oc(S(=O)(=O)N2CCOCC2)cc1C(=O)N[C@@H](CC1CCCCC1)C(=O)NCCNc1ccc(OC(F)(F)F)cc1 [Compound 49, 2-Methyl-5-(morpholine-4-sulfonyl)-furan-3carboxylic acid (S)-{2-cyclohexyl-1-[2-(4-trifluoromethoxy-phenylamino)-ethylcarbamoyl]-ethyl}-amide] | < 0.1 | ++ (++, >100)
O=C(N[C@@H](CC1CCCCC1)C(=O)NCCNc1ccc(OC(F)(F)F)cc1)c1ccc(-c2cccc(C(F)(F)F)c2)s1 [Compound 50, 5-(3-Trifluoromethyl-phenyl)-thiophene-2-carboxylic acid (S)-{2-cyclohexyl-1-[2-(4-trifluoromethoxy-phenylamino)-ethylcarbamoyl]-ethyl}-amide] | < 0.1 | +++ (+++, >1000)
COc1ccc(NCCNC(=O)[C@H](Cc2ccc(C#N)cc2)NC(=O)c2cccc(C)c2)cc1 [Compound 240, (S)-N-{2-(4-Cyano-phenyl)-1-[2-(4-methoxy-phenylamino)-ethylcarbamoyl]-ethyl}-3-methyl-benzamide] | < 0.1 | +++ (+++, >1000)
COc1ccc(NCCNC(=O)[C@H](Cc2ccc(OCc3c(Cl)cccc3Cl)cc2)NC(=O)c2cccc(C)c2)cc1 [Compound 248, (S)-N-{2-[4-(2,6-Dichloro-benzyloxy)-phenyl]-1-[2-(4-methoxy-phenylamino)-ethylcarbamoyl]-ethyl}-3-methyl-benzamide] | < 0.1 | +++ (+++, >1000)
CS(=O)(=O)c1ccc(C(=O)N[C@@H](CC2CCCCC2)C(=O)NCCNc2ccc(F)cc2)cc1 [Compound 313, N-(S)-{2-cyclohexyl-1-[2-(4-fluoro-phenylamino)-ethylcarbamoyl]-ethyl}-4-methanesulfonyl-benzamide] | < 1 | + (+, >10)
COc1ccc(NCCNC(=O)[C@H](Cc2ccc(O)cc2)NC(=O)c2cccc(C)c2)cc1 [Compound 228, (S)-N-{2-(4-Hydroxy-phenyl)-1-[2-(4-methoxy-phenylamino)-ethylcarbamoyl]-ethyl}-3-methyl-benzamide] | < 0.1 | +++ (+++, >1000)
COc1ccc(NCCNC(=O)[C@H](CC2CCCCC2)NC(=O)c2cccc(C#N)c2)cc1 [Compound 120, (S)-3-Cyano-N-{2-cyclohexyl-1-[2-(4-methoxy-phenylamino)-ethylcarbamoyl]-ethyl}-benzamide] | < 0.1 | ++ (++, >100)
COc1ccc(NCCNC(=O)[C@H](CC2CCCCC2)NC(=O)c2cccc(CN)c2)cc1 [Compound 199, (S)-3-Aminomethyl-N-{2-cyclohexyl-1-[2-(4-methoxy-phenylamino)-ethylcarbamoyl]-ethyl}-benzamide] | < 1 | ++ (++, >100)
COc1ccc(NCCNC(=O)[C@H](CCC2CCCCC2)NC(=O)c2ccc(-c3ccccc3)cc2)cc1 [Compound 130, (S)-Biphenyl-4-carboxylic acid {3-cyclohexyl-1-[2-(4-methoxy-phenylamino)-ethylcarbamoyl]-propyl}-amide] | < 10 | + (+, >10)
N#Cc1cccc(C(=O)N[C@@H](CC2CCCCC2)C(=O)NCCNc2ccc(F)cc2)c1 [Compound 324, 3-Cyano-N-(S)-{2-cyclohexyl-1-[2-(4-fluoro-phenylamino)-ethylcarbamoyl]-ethyl}-benzamide] | < 0.1 | ++ (++, >100)
(S)-3-Bromo-N-{1-[2-(4-methoxy-phenylamino)-ethylcarbamoyl]-2-phenyl-ethyl}-4-methyl-benzamide [Compound 24] | – | + (+, >10)
